Patent publication US7910574B2, “Treatments for the control of schistosomiasis” (Illinois State University, priority 2007, dated 2011)

Experiments:
[1] = biological target: TGR (Schistosoma mansoni, UniProt Q962Y6); experiment: Mode of TGR inhibition; settings: through release of NO
[2] = system: parasite lactate dehydrogenase; experiment: Lactate dehydrogenase control enzyme activity in homogenates of treated worms; format: cell-based, Schistosoma mansoni; settings: 10 μM, treated worm homogenates
[3] = system: adult S. mansoni worms
[4] = biological target: recombinant S. mansoni TGR (Schistosoma mansoni, UniProt Q962Y6); experiment: NO release with recombinant SmTGR (ABTS oxidation); format: biochemical; settings: 10 μM oxadiazole, 15 nM SmTGR, P<0.05
Experimental: Because oxadiazoles are known to release nitric oxide (NO) at physiological levels of thiols, we examined if NO release played a part in their mechanism of action (TGR inhibition and worm killing). […] The NO releasing capability of oxadiazoles was next tested with recombinant S. mansoni TGR enzyme with and without NADPH.
NO release by different oxadiazoles was determined by 2,2′-azino-bis(3-ethylbenzthiazoline-6-sulphonic acid) [ABTS, Sigma] oxidation method [Nims et al, Methods 7, 48-54; 1995]. Different oxadiazoles at 10 μM were incubated at RT for 50 minutes with 15 nM recombinant SmTGR in the presence or absence of 100 μM NADPH. The (oxadiazole+SmTGR/±NADPH) mixture was then added to an aerobic PBS, pH 7.4, containing 5 mM ABTS. The absorbance of the resulting green ABTS^+ were measured at A660. A conversion factor was calculated to adjust the readings from 1 ml reaction to 96-well plate. The concentrations of the released NO were calculated as a percentage of the added oxadiazoles. Each reaction was done in triplicate and the data is the average of three independent experiments. […] The slope of the regression line was calculated and used to recalculate the data at A660 in 200 μl reaction [Nims et al, Methods 7, 48-54; 1995].

[5] = system: adult S. mansoni worms; experiment: microbe, parasite or virus in culture; settings: Schistosoma mansoni
[6] = system: murine myeloma cell line SP2/0; experiment: Cytotoxicity assay (sulforhodamine B); format: cell-based
Experimental: To examine if furoxan is tolerated by mammalian cells, we incubated the murine myeloma cell line SP2/0 with the drugs at given concentrations and monitored cell viability at 24 hr and 120 hr. At 120 hr in 2 μM furoxan ˜25% mortality of myeloma cells was observed compared to 100% mortality of adult S. mansoni worms at the same concentration. Myeloma cells tolerated furoxan at concentrations as high as 100 μM. Differential cytotoxicity of furoxan on the worm survival and myeloma cells were also seen after 24 hrs of drug application.
Cytotoxicity assays were performed using sulforhodamine B to determine cellular protein content. Murine myeloma cell line SP2/0 was cultured in 96-well microtiter plates containing 0.2 ml of RPMI-1640 per well at a cell density of 900 per well at 37° C. in 5% CO2. Cells were treated with drug concentrations (or drug carrier alone) for times as indicated. After treatment, cells were fixed with 10% TCA at 4° C. for 1 hr. Fixed cells were rinsed to remove fixative and then stained in 0.4% (wt/vol) sulforhodamine B (Sigma) in 1% acetic acid for 35 min. After washing with 1% acetic acid and dye extraction in 10 mM Tris (pH 10.5), plates were read at A564 nm. The A564 nm of drug-treated cells was compared to carrier-only-treated cells.

[7] = biological target: parasite TGR (GSH reductase activity) (Schistosoma mansoni, UniProt Q962Y6); experiment: Glutathione reductase activity of TGR in homogenates of treated cultured worms; settings: 10 μM, 18 hrs treatment of cultured worms
Experimental: (§1) Freshly perfused adult S. mansoni worms were cultured with 10 μM furoxan or 50 μM NBPPTA. […] The activity of lactate dehydrogenase was monitored as a control enzyme.
(§2) Enzyme assays were performed at 25° C. in 0.1 M potassium phosphate, pH 7.4, 10 mM EDTA. Thioredoxin reductase activity of TGR was determined using either 3 mM 5,5′ dithiobis(2-nitrobenzoic acid) (DTNB, Ellman's reagent) or 16 μM recombinant S. mansoni thioredoxin-1 (Alger et al 2002). One enzyme unit was defined as the NADPH-dependent production of 2 μmol of 2-nitro-5-thiobenzoic acid per minute using ε412 nm=13.6 mM^−1 cm^−1 or the consumption of 1 μmol of NADPH (ε340 nm=6.22 mM^−1 cm^−1) during the first three minutes. Glutathione reductase activity was determined with 100 μM GSH disulfide and 100 μM NADPH by measuring the decrease in A340 nm due to consumption of NADPH (ε340 nm=6.22 mM^−1 cm^−1) during the first three minutes. Activity of the control enzyme lactate dehydrogenase (LDH) was determined with 10 μM sodium pyruvate and 100 μM NADPH. Each assay was done in triplicate and each experiment was repeated three times.
(§3) Compounds were dissolved in dimethylsulfoxide (DMSO) and added at concentrations indicated to freshly perfused worms in RPMI1640 containing 25 mM Hepes, pH 7, 150 units/ml penicillin, 125 μg/ml streptomycin, and 10% fetal calf serum (Cell Grow, Fisher). […]

[8] = system: S. mansoni infected mice; experiment: In vivo drug treatment of S. mansoni infected mice; design: species or system Schistosoma mansoni; settings: for decrease in worm burden vs control infected mice: perfusion day 49
[9] = 10 mg/kg once a day, 5 days, ip; cited from earlier work
[10] = biological target: parasite TGR (thioredoxin reductase activity) (Schistosoma mansoni, UniProt Q962Y6); experiment: Thioredoxin reductase activity of TGR in homogenates of treated cultured worms; settings: 10 μM, 18 hrs treatment of cultured worms
Experimental: as §1, §2, §3

[11] = system: S. mansoni infections in mice; settings: juvenile liver parasites targeted, mouse model; cited from earlier work

recombinant S. mansoni TGR, sequence (Q962Y6 1-598): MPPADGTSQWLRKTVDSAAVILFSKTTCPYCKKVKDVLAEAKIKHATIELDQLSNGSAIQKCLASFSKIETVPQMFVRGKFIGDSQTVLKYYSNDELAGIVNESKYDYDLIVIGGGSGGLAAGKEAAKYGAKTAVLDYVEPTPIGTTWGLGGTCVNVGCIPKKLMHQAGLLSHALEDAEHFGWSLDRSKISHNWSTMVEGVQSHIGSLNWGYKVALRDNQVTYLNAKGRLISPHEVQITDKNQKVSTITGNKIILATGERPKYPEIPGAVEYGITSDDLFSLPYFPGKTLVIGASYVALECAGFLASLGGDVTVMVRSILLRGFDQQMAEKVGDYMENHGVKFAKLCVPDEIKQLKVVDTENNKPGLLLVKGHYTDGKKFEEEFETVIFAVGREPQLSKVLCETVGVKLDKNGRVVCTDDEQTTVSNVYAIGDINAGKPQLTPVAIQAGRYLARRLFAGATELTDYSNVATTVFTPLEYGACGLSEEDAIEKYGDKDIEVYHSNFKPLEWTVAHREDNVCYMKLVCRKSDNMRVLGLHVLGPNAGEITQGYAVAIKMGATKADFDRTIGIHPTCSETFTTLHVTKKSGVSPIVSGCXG
parasite TGR (GSH reductase activity), sequence (Q962Y6 1-598): as above
parasite TGR (thioredoxin reductase activity), sequence (Q962Y6 1-598): as above
TGR, sequence (Q962Y6 1-598): as above

N#Cc1c(-c2ccccc2)no[n+]1[O-] [Analogue 9]
mode of inhibition of TGR [1]: time-dependent irreversible inhibition
activity of parasite lactate dehydrogenase vs carrier only treated worms [2]: no significant change
activity against adult parasites ([3]; 0.38 μg/ml, longer times): active
time to kill worms ([3]; 2 μM): 120 h
worm viability with NO scavenger ([3]; 10 μM furoxan with 100 μM carboxy-PTIO): extended
parasite death ([3]; 10 μM, within 24 hr, axenically cultured adult worms): 100%
NO release relative to the other oxadiazoles tested ([4]; +NADPH): 10 ×
NO release relative to the other oxadiazoles tested ([4]; −NADPH): 3 ×
inhibition at 1.87 µg/mL ([5]; 24 h, read-out: inhibition of motility of adult parasites): 100%
mortality at 2 µM ([5]; 120 h, read-out: mortality of adult S. mansoni worms): 100%
concentration tolerated by myeloma cells [6]: ≤ 100 µM
mortality of myeloma cells ([6]; 2 μM, 120 hr): ~25%
reduction of GSH reductase activity of parasite TGR vs carrier control [7]: 93%
reduction in worm burdens, all trials in mice ([8]; 10 mg/kg, regardless of lifecycle stage): ≥ 89%
adult parasites recovered ([8]; early stage treatment (treatment 1), total from the eight mice infected): one
liver egg granulomas ([8]; treatment 1 (skin stage)): no signs of egg granulomas
hepatomegaly vs control infected mice ([8]; treatment 1 (skin stage), P<0.0001): reduction of hepatomegaly
decrease in worm burden vs control infected mice ([8]; treatment 1: 10 mg/kg ip once daily x5 from day 1 after infection (skin stage)): > 99%
number of liver granulomas vs control infections ([8]; treatment 2 (juvenile liver stage)): considerably reduced
hepato- and splenomegaly vs control infected mice ([8]; treatment 2 (juvenile liver stage), P<0.0001): dramatic reductions in hepato- and splenomegaly
decrease in worm burden vs control infected mice ([8]; treatment 2: 10 mg/kg ip once daily x5 from day 23 (juvenile liver stage)): 89%
egg-induced liver granulomas vs control group ([8]; treatment 3 (adult stage)): greatly reduced number
hepatomegaly vs control group ([8]; treatment 3 (adult stage), P<0.0001): dramatic reduction in hepatomegaly
decrease in worm burden vs control infected mice ([8]; treatment 3: 10 mg/kg ip once daily x5 from day 37 (adult egg laying)): 94%
tolerability in mice [9]: well tolerated
reduction of thioredoxin reductase activity of parasite TGR vs carrier control [10]: 83%

O=C(C1CCCCC1)N1CC(=O)N2CCc3ccccc3C2C1 (stereo not drawn) [PZQ, praziquantel]
reduction in worm burdens [11]: 25-30%
